# Reference: paper PMC4993599 (Bioorganic & medicinal chemistry letters, 2016)
# Tests used:
# [1] = Lipophilicity by analytical reverse phase HPLC; type: physicochemical
# [2] = target: TSPO (Rattus norvegicus, UniProt P16257); test: C6 glioma cell lysate binding assay; settings: for binding affinity (in words): TSPO
Structure (SMILES),lipophilicity (in words) [1],binding affinity (in words) [2],further results
CCCCN(CCCC)C(=O)Cc1c(-c2ccc(OC)cc2)nn2c(CC)cc(CC)nc12 [Compound 12],extremely lipophilic,–,–
CCc1cc(CC)n2nc(-c3ccc(OC)cc3)c(CC(=O)N3CCCC3)c2n1 [Compound 24],–,very poor binding affinity,–
CCc1cc(CC)n2nc(-c3ccc(OC)cc3)c(CC(=O)N(CC)C(C)(C)C)c2n1 [Compound 16],–,–,decrease of affinity when substituting ethyl groups with t-butyls ([2]; compound 16 relative to compound 10): over 300 fold
CCCCCN(CCCCC)C(=O)Cc1c(-c2ccc(OC)cc2)nn2c(CC)cc(CC)nc12 [Compound 13],extremely lipophilic,–,–
CCCCCCN(CCCCCC)C(=O)Cc1c(-c2ccc(OC)cc2)nn2c(CC)cc(CC)nc12 [Compound 14],extremely lipophilic,–,–
"CCN(CC)C(=O)Cc1c(-c2ccc(OC)cc2)nn2c(C)cc(C)nc12 [Compound 8, DPA-713, reference compound]",–,–,"log P7.5 ([1]; reverse phase HPLC, averaged from triple runs): 2.40"
CCc1cc(CC)n2nc(-c3ccc(OC)cc3)c(CC(=O)N3CCC3)c2n1 [Compound 23],–,very poor binding affinity,–
CCc1cc(CC)n2nc(-c3ccc(OC)cc3)c(CC(=O)N3CCCCC3)c2n1 [Compound 25],–,very poor binding affinity,–
